Experimental data published in PubChem BioAssay AID1919007 (Molecular Pharmacology Branch, DTP, NCI, 2023).

Test system: A498 complex spheroids with HUVEC/MSC, growth
Assay: Anticancer human tumor A498 cell line growth inhibition [AhR];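 further: seven day exposure starting three days after spheroid seeding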;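 on viability, T/C: luminescence signal used as a surrogate for viable cells; luminescence viability scaled so 100% equals DMSO vehicle wells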
Conditions: for IC50: curve of first compound; for viability, T/C: stronger effect = lower value; active means viability on the fitted dose curve at most 10% of control; inactive means the rest
How it was run: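 Agents were dosed in half-log steps down from roughly clinical Cmax, or from 10 microM where Cmax was unknown, alone and with AhR antagonists. Read-out: percent test/control growth of tumor spheroids containing HUVEC and MSC stromal cells.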

[1] = second compound 0.1 µM, first compound 0.0316 µM
[2] = second compound 0.1 µM, first compound 0.1 µM
[3] = second compound 0.1 µM, first compound 0.316 µM
[4] = second compound 0.1 µM, first compound 1 µM
[5] = second compound 0.1 µM, first compound 3.16 µM
[6] = second compound 0.1 µM, first compound 10 µM
[7] = second compound 0.316 µM, first compound 0.0316 µM
[8] = second compound 0.316 µM, first compound 0.1 µM
[9] = second compound 0.316 µM, first compound 0.316 µM
[10] = second compound 0.316 µM, first compound 1 µM
[11] = second compound 0.316 µM, first compound 3.16 µM
[12] = second compound 0.316 µM, first compound 10 µM
[13] = second compound 1 µM, first compound 0.0316 µM
[14] = second compound 1 µM, first compound 0.1 µM
[15] = second compound 1 µM, first compound 0.316 µM
[16] = second compound 1 µM, first compound 1 µM
[17] = second compound 1 µM, first compound 3.16 µM
[18] = second compound 1 µM, first compound 10 µM
[19] = second compound 3.16 µM, first compound 0.0316 µM
[20] = second compound 3.16 µM, first compound 0.1 µM
[21] = second compound 3.16 µM, first compound 0.316 µM
[22] = second compound 3.16 µM, first compound 1 µM
[23] = second compound 3.16 µM, first compound 3.16 µM
[24] = second compound 3.16 µM, first compound 10 µM
[25] = second compound 10 µM, first compound 0.0316 µM
[26] = second compound 10 µM, first compound 0.1 µM
[27] = second compound 10 µM, first compound 0.316 µM
[28] = second compound 10 µM, first compound 1 µM
[29] = second compound 10 µM, first compound 3.16 µM
[30] = second compound 10 µM, first compound 10 µM

CC(C)CC(NC(=O)C(Cc1ccccc1)NC(=O)c1cnccn1)B(O)O (stereo not given) + Cc1ccccc1N=Nc1ccc(NC(=O)c2ccnn2C)c(C)c1
5.19 nM: IC50 (second compound 1 µM)
5.25 nM: IC50 (second compound 0.1 µM)
inactive: viability, T/C (second compound 0.1 µM, first compound 0.000949 µM) 91.9% | viability, T/C (second compound 0.1 µM, first compound 0.003 µM) 85.5% | viability, T/C (second compound 0.1 µM, first compound 0.00949 µM) 12.4% | viability, T/C (second compound 0.316 µM, first compound 0.000949 µM) 99.1% | viability, T/C (second compound 0.316 µM, first compound 0.003 µM) 102% | viability, T/C (second compound 0.316 µM, first compound 0.00949 µM) 11% | viability, T/C (second compound 1 µM, first compound 0.000949 µM) 81.7% | viability, T/C (second compound 1 µM, first compound 0.003 µM) 86.3% | viability, T/C (second compound 1 µM, first compound 0.00949 µM) 12.4% | viability, T/C (second compound 3.16 µM, first compound 0.000949 µM) 80.9% | viability, T/C (second compound 3.16 µM, first compound 0.003 µM) 86.7% | viability, T/C (second compound 3.16 µM, first compound 0.00949 µM) 11.8% | viability, T/C (second compound 10 µM, first compound 0.000949 µM) 84.8% | viability, T/C (second compound 10 µM, first compound 0.003 µM) 87.2%
5.16 nM: IC50 (second compound 3.16 µM)
5.11 nM: IC50 (second compound 10 µM)
active: viability, T/C (second compound 0.1 µM, first compound 0.03 µM) 2.56% | viability, T/C (second compound 0.1 µM, first compound 0.0949 µM) 1.06% | viability, T/C (second compound 0.1 µM, first compound 0.3 µM) 0.48% | viability, T/C (second compound 0.316 µM, first compound 0.03 µM) 3.7% | viability, T/C (second compound 0.316 µM, first compound 0.0949 µM) 3.08% | viability, T/C (second compound 0.316 µM, first compound 0.3 µM) 1.05% | viability, T/C (second compound 1 µM, first compound 0.03 µM) 3.99% | viability, T/C (second compound 1 µM, first compound 0.0949 µM) 2.9% | viability, T/C (second compound 1 µM, first compound 0.3 µM) 0.61% | viability, T/C (second compound 3.16 µM, first compound 0.03 µM) 4.56% | viability, T/C (second compound 3.16 µM, first compound 0.0949 µM) 3.32% | viability, T/C (second compound 3.16 µM, first compound 0.3 µM) 0.84% | viability, T/C (second compound 10 µM, first compound 0.00949 µM) 8.3% | viability, T/C (second compound 10 µM, first compound 0.03 µM) 4.14% | viability, T/C (second compound 10 µM, first compound 0.0949 µM) 1.64% | viability, T/C (second compound 10 µM, first compound 0.3 µM) 1.69%
5.75 nM: IC50 (second compound 0.316 µM)

COc1cc(Nc2ncc3c(n2)-c2ccc(Cl)cc2C(c2c(F)cccc2OC)=NC3)ccc1C(=O)O + Cc1ccccc1N=Nc1ccc(NC(=O)c2ccnn2C)c(C)c1
1350 nM: IC50 (second compound 3.16 µM)
1510 nM: IC50 (second compound 1 µM)
inactive: viability, T/C [1] 70.2% | viability, T/C [2] 73% | viability, T/C [3] 65.8% | viability, T/C [4] 54.4% | viability, T/C [5] 46.6% | viability, T/C [6] 33.5% | viability, T/C [7] 70% | viability, T/C [8] 72.4% | viability, T/C [9] 70.7% | viability, T/C [10] 54.9% | viability, T/C [11] 45.2% | viability, T/C [12] 34.2% | viability, T/C [13] 67.8% | viability, T/C [14] 67.2% | viability, T/C [15] 59.6% | viability, T/C [16] 56.5% | viability, T/C [17] 41.3% | viability, T/C [18] 31.8% | viability, T/C [19] 69.2% | viability, T/C [20] 72.7% | viability, T/C [21] 62.2% | viability, T/C [22] 49.9% | viability, T/C [23] 44.8% | viability, T/C [24] 31.8% | viability, T/C [25] 63.9% | viability, T/C [26] 63.4% | viability, T/C [27] 56.7% | viability, T/C [28] 59% | viability, T/C [29] 47.9% | viability, T/C [30] 35.1%
1920 nM: IC50 (second compound 0.1 µM)
2550 nM: IC50 (second compound 10 µM)
1830 nM: IC50 (second compound 0.316 µM)

O=C(C=Cc1cccc(S(=O)(=O)Nc2ccccc2)c1)NO + Cc1ccccc1N=Nc1ccc(NC(=O)c2ccnn2C)c(C)c1
1950 nM: IC50 (second compound 0.1 µM)
2020 nM: IC50 (second compound 0.316 µM)
1790 nM: IC50 (second compound 10 µM)
inactive: viability, T/C [1] 84.2% | viability, T/C [2] 88.4% | viability, T/C [3] 72% | viability, T/C [4] 56.9% | viability, T/C [5] 45.4% | viability, T/C [6] 19.8% | viability, T/C [7] 95.6% | viability, T/C [8] 87.5% | viability, T/C [9] 75.2% | viability, T/C [10] 59.5% | viability, T/C [11] 46.3% | viability, T/C [12] 20.1% | viability, T/C [13] 82.4% | viability, T/C [14] 82.7% | viability, T/C [15] 68.2% | viability, T/C [16] 54.6% | viability, T/C [17] 47% | viability, T/C [18] 18.3% | viability, T/C [19] 85.5% | viability, T/C [20] 80.9% | viability, T/C [21] 63% | viability, T/C [22] 55.7% | viability, T/C [23] 42.4% | viability, T/C [24] 18.8% | viability, T/C [25] 80.2% | viability, T/C [26] 75.7% | viability, T/C [27] 71.1% | viability, T/C [28] 55.1% | viability, T/C [29] 43.9% | viability, T/C [30] 17.5%
1450 nM: IC50 (second compound 3.16 µM)
1850 nM: IC50 (second compound 1 µM)
